From PMC6017654, “Ionic Liquid-Promoted Synthesis of Novel Chromone-Pyrimidine Coupled Derivatives, Antimicrobial Analysis, Enzyme Assay, Docking Study and Toxicity Study” (Molecules : A Journal of Synthetic Chemistry and Natural …, 2018)
Converted amounts (≈) assume the structure as drawn.

Assays:
Aspergillus niger = test: In vitro antifungal activity (MIC100, CLSI/NCCLS); assay type: cell-based; conditions: A. nig., average of three readings, read-out: MIC 100
Description: (§1) The newly synthesized derivatives 4(a–f) and 6(a–f) were screened for their in vitro antifungal activity against different yeast and filamentous fungal pathogens. Minimum inhibitory concentration (MIC100) values for in vitro antifungal activity were determined by the methods recommended by National Committee for Clinical Laboratory Standards (NCCLS). Miconazole was used as standard drug. Dimethyl sulfoxide (DMSO) was used as solvent control.
(§2) In vitro antifungal activity was determined as per CLSI (formerly, NCCLS) guidelines. […] The medium yeast nitrogen base was dissolved in phosphate buffer pH 7 and it was autoclaved at 110 °C for 10 min. With each set a growth control without the antifungal agent and solvent control DMSO were included. The fungal strains were freshly sub cultured on to Sabouraud dextrose agar (SDA) and incubated at 25 °C for 72 h. The fungal cells were suspended in sterile distilled water and diluted to get 10^5 cells/mL. Further, ten microlitres of the standardized suspension was inoculated onto the control plates and the media incorporated with the antifungal agents. The inoculated plates were incubated at 25 °C for 48 h. The readings were taken at the end of 48 h and 72 h. The MIC was the lowest concentration of drug preventing growth of macroscopically visible colonies on drug containing plates when there was visible growth on the drug free control plates.

Fusarium oxysporum = test: In vitro antifungal activity (MIC100, CLSI/NCCLS); assay type: cell-based; conditions: F. oxy., average of three readings, read-out: MIC 100
Description: as §1, §2

A. flavus = test: In vitro antifungal activity (MIC100, CLSI/NCCLS); assay type: cell-based; conditions: Aspergillus flavus; A. fla.; average of three readings; read-out: MIC 100
Description: as §1, §2

Candida albicans = test: In vitro antifungal activity (MIC100, CLSI/NCCLS); assay type: cell-based; conditions: C. alb., average of three readings, read-out: MIC 100
Description: as §1, §2

Cryptococcus neoformans = test: In vitro antifungal activity (MIC100, CLSI/NCCLS); assay type: cell-based; conditions: C. neo., average of three readings, read-out: MIC 100
Description: as §1, §2

Aspergillus fumigates = test: In vitro antifungal activity (MIC100, CLSI/NCCLS); assay type: cell-based; conditions: A. fum., average of three readings, read-out: MIC 100
Description: as §1, §2

Candida glabrata = test: In vitro antifungal activity (MIC100, CLSI/NCCLS); assay type: cell-based; conditions: Nakaseomyces glabratus; C. glab.; average of three readings; read-out: MIC 100
Description: as §1, §2

Swiss albino mice = test: In vivo acute oral toxicity study and gross behavioral study (OECD guideline No. 425)
Description: The in vivo acute oral toxicity and gross behavioral study results of the newly synthesized compounds 6c and 6f are as listed in Table 12 [26].
Each group, consisting of six Swiss albino mice (18–22 gm weight, overnight fasted), were kept in colony cage at 25 ± 2 °C with 55% relative humidity and 12 h of light and dark cycle. A specified dose of 100, 250, 500, 750, 1000, 1500 and 2000 mg/kg body weight of mice was administered orally as a single dose. The acute toxic symptoms and the behavioral changes produced by the test compounds were observed continuously for 4 h periods at 8th, 12th and 24th h on set of toxic symptoms and the gross behavioral changes were also recorded. These animals were maintained for further 10 days with observation made daily. The in vivo acute oral toxicity study was carried out at animal house at the Y.B. Chavan College of Pharmacy, Aurangabad IAEC approval number CPCSEA/IAEC/P’col-52/2015-16/115 [26].

## COc1ccc2occ(C3NC(=S)NC(C)=C3C(=O)NN)c(=O)c2c1 (stereo not drawn) [Compound 6f, 4-(6-Methoxy-4-oxo-4H-chromen-3-yl)-6-methyl-2-thioxo-1,2,3,4-tetrahydropyrimidine-5-carbohydrazide]
Aspergillus niger
  MIC: 16 µg/mL (≈ 44.4 µM)
Fusarium oxysporum
  MIC: 28 µg/mL (≈ 77.7 µM)
A. flavus
  MIC: 15 µg/mL (≈ 41.6 µM)
Candida albicans
  MIC: 24 µg/mL (≈ 66.6 µM)
Cryptococcus neoformans
  MIC: 15 µg/mL (≈ 41.6 µM)
Aspergillus fumigates
  MIC: 33 µg/mL (≈ 91.6 µM)
Candida glabrata
  MIC: 25 µg/mL (≈ 69.4 µM)
Swiss albino mice; Swiss albino mice, single oral dose 100 to 2000 mg/kg
  No. of Deaths: N
Swiss albino mice; mice, oral, single dose, no mortality up to 2000 mg/kg
  lethal dose: above 2000 mg/kg body weight
